# “And” between values parts separate entries of the source, which are not always exact repeats. Equal values may be shown once.
# Tested on: DU-145 multicell spheroids with HUVEC/MSC, viability
# Experiment: Anticancer human tumor DU-145 cell line growth inhibition [IpAb];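 further: spheroids exposed to agents for seven days before measurement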;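 on viability, T/C: percent of DMSO vehicle control viability so 100% = untreated level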
# Conditions: for viability, T/C: stronger effect = lower value
# Text: Combinatorial screen of targeted agents with ipatasertib and abemaciclib in multi-cell type tumor spheroids
# A high-throughput screen of multi-cell type tumor spheroids was designed to identify active combinations of targeted small molecules and ipatasertib or abemaciclib. Complex spheroids include a stromal component modeled by human endothelial cells (HUVEC) and fibroblasts modeled by human mesenchymal stem cells (MSCs). The concentration ranges selected for each drug and investigational agent were based upon clinically achievable concentrations if the clinical Cmax of the agent was known.
# Compounds. The drugs and investigational agents: ipatasertib (NSC767898), abemaciclib(NSC768073), selumetinib (NSC741078), trametinib (758246), adavosertib (NSC754352), everolimus (NSC733504), sapanisertib (NSC764658), vemurafenib (NSC761431), venetoclax (NSC766270), copanlisib (NSC809693), apelisib (NSC765974), palbociblib (NSC758247), vemurafenib (NSC761431), dabrafenib (NSC764134), ravoxertinib (NSC781343), BMS-387032 (NSC767048), sotorasib (NSC818433), talazoparib (NSC767125) and afursertib (NSC778305), were obtained from the National Cancer Institute (NCI) Developmental Therapeutics Program Chemical Repository. The FDA-approved anticancer drug set is available from the NCI Developmental Therapeutics Program. […] The stock solutions were prepared in dimethyl sulfoxide (DMSO, Sigma-Aldrich, St. Louis, MO, cat. D2650) at 800-fold the tested concentration and stored at -70 degrees C prior to their use. All drugs and investigational agents were tested over a range starting from a high concentration at or near the clinical Cmax and decreasing in half-log increments. If the clinical Cmax for an agent had not been determined, the highest concentration tested was 10 microM.
# NCI60 Cell Culture. NCI60 cell lines were obtained from the NCI Developmental Therapeutics Program Tumor Repository. For each lot of cells, the Repository performed Applied Biosystems AmpFLSTR Identifiler testing with PCR amplification to confirm consistency with the published Identifier STR profile for each cell line. Cells were kept in continuous culture for no more than 20 passages. The optimal seeding densities for each of the cell lines at each time point assessed were determined prior to performing the concentration response studies. Briefly, the NCI60 human tumor lines were grown as monolayers in RPMI 1640 medium supplemented with 10% FBS and 2 mmol/L L-glutamine.
# An additional 9 lines were from the NCI60 cell line panel including MDA-MB-231 breast carcinoma, MDA-MB-468 breast carcinoma, MCF7 breast carcinoma, Hs578T breast carcinoma, MALME-3M melanoma, SK-MEL-2 melanoma, SK-OV-3 ovarian carcinoma, DU-145 prostate carcinoma, PC-3 prostate carcinoma, all cell lines along with major genetic alterations are listed on Table 2. Pooled donor human umbilical vein endothelial cells (HUVEC, Lonza, cat. CC-2519) and human mesenchymal stem cells (hMSC, Lonza, cat. PT-2501) were purchased from Lonza (Walkersville, MD).
# PDMR cell lines were grown in complete medium (DC medium): Dulbecco's modified Eagle's medium (DMEM)/F12 supplemented with 5% fetal bovine serum (FBS), 2 mM L-glutamine, 100 U/mL penicillin and 100 µg/ml streptomycin, 0.4 µg/ml hydrocortisone, 10 ng/ml epidermal growth factor (EGF) recombinant human protein, 24 µg/mL adenine, and 0.1 mg/mL primocin. During culture from frozen stock vials, PDMR cells were cultured in the same medium containing 10 µM Y-27632 (see Table 3). The PDCs were cultured in complete DMEM/F12 media without 10 microM Y-27632 dihydrochloride for at least two passages prior to the screen. The pooled donor HUVEC and hMSC were cultured in endothelial cell growth medium 2 (PromoCell, Heidelberg, Germany, cat. C-22011) and mesenchymal stem cell growth medium 2 (PromoCell, cat. C-28009), respectively. For all experiments, HUVEC and hMSC were used at passages </=5.
# […]
# [1] = curve of first compound, second compound 0.01 µM
# [2] = curve of first compound, second compound 0.0316 µM
# [3] = curve of first compound, second compound 0.1 µM
# [4] = curve of first compound, second compound 0.316 µM
# [5] = curve of first compound, second compound 1 µM
# [6] = second compound 0.1 µM, first compound 0.00949 µM
# [7] = second compound 0.1 µM, first compound 0.03 µM
# [8] = second compound 0.1 µM, first compound 0.0949 µM
# [9] = second compound 0.1 µM, first compound 0.3 µM
# [10] = second compound 0.1 µM, first compound 0.949 µM
# [11] = second compound 0.1 µM, first compound 3 µM
# [12] = second compound 0.316 µM, first compound 0.00949 µM
# [13] = second compound 0.316 µM, first compound 0.03 µM
# [14] = second compound 0.316 µM, first compound 0.0949 µM
# [15] = second compound 0.316 µM, first compound 0.3 µM
# [16] = second compound 0.316 µM, first compound 0.949 µM
# [17] = second compound 0.316 µM, first compound 3 µM
# [18] = second compound 1 µM, first compound 0.00949 µM
# [19] = second compound 1 µM, first compound 0.03 µM
# [20] = second compound 1 µM, first compound 0.0949 µM
# [21] = second compound 1 µM, first compound 0.3 µM
# [22] = second compound 1 µM, first compound 0.949 µM
# [23] = second compound 1 µM, first compound 3 µM
structure (smiles),measurement,setting,value
Cn1ncnc1[C@H]1c2n[nH]c(=O)c3cc(F)cc(c23)N[C@@H]1c1ccc(F)cc1 + CCN1CCN(Cc2ccc(Nc3ncc(F)c(-c4cc(F)c5nc(C)n(C(C)C)c5c4)n3)nc2)CC1,IC50,[1],> 100 nM
same,IC50,[2],> 100 nM
same,IC50,[3],> 100 nM
same,IC50,[4],> 100 nM
same,IC50,[5],> 100 nM
same,"viability, T/C","second compound 0.01 µM, first compound 0.000316 µM",99.7%
same,"viability, T/C","second compound 0.01 µM, first compound 0.001 µM",102%
same,"viability, T/C","second compound 0.01 µM, first compound 0.00316 µM",96.8%
same,"viability, T/C","second compound 0.01 µM, first compound 0.01 µM",89%
same,"viability, T/C","second compound 0.01 µM, first compound 0.0316 µM",88.5%
same,"viability, T/C","second compound 0.01 µM, first compound 0.1 µM",81.6%
same,"viability, T/C","second compound 0.0316 µM, first compound 0.000316 µM",94.2%
same,"viability, T/C","second compound 0.0316 µM, first compound 0.001 µM",95.7%
same,"viability, T/C","second compound 0.0316 µM, first compound 0.00316 µM",84.5%
same,"viability, T/C","second compound 0.0316 µM, first compound 0.01 µM",79.1%
same,"viability, T/C","second compound 0.0316 µM, first compound 0.0316 µM",84.1%
same,"viability, T/C","second compound 0.0316 µM, first compound 0.1 µM",77.4%
same,"viability, T/C","second compound 0.1 µM, first compound 0.000316 µM",90%
same,"viability, T/C","second compound 0.1 µM, first compound 0.001 µM",84.4%
same,"viability, T/C","second compound 0.1 µM, first compound 0.00316 µM",78.3%
same,"viability, T/C","second compound 0.1 µM, first compound 0.01 µM",73.4%
same,"viability, T/C","second compound 0.1 µM, first compound 0.0316 µM",82.1%
same,"viability, T/C","second compound 0.1 µM, first compound 0.1 µM",76%
same,"viability, T/C","second compound 0.316 µM, first compound 0.000316 µM",81.9%
same,"viability, T/C","second compound 0.316 µM, first compound 0.001 µM",78%
same,"viability, T/C","second compound 0.316 µM, first compound 0.00316 µM",75.3%
same,"viability, T/C","second compound 0.316 µM, first compound 0.01 µM",73.3%
same,"viability, T/C","second compound 0.316 µM, first compound 0.0316 µM",66.7%
same,"viability, T/C","second compound 0.316 µM, first compound 0.1 µM",64.7%
same,"viability, T/C","second compound 1 µM, first compound 0.000316 µM",67.9%
same,"viability, T/C","second compound 1 µM, first compound 0.001 µM",75.3%
same,"viability, T/C","second compound 1 µM, first compound 0.00316 µM",63.3%
same,"viability, T/C","second compound 1 µM, first compound 0.01 µM",65.8%
same,"viability, T/C","second compound 1 µM, first compound 0.0316 µM",63.7%
same,"viability, T/C","second compound 1 µM, first compound 0.1 µM",61.2%
CC(C)(C)c1cnc(CSc2cnc(NC(=O)C3CCNCC3)s2)o1 + CC(C)NCC(C(=O)N1CCN(c2ncnc3c2C(C)CC3O)CC1)c1ccc(Cl)cc1,IC50,[3],107 nM
same,IC50,[4],81.5 nM
same,IC50,[5],< 9.49 nM
same,IC50,"curve of first compound, second compound 3.16 µM",< 9.49 nM
same,IC50,"curve of first compound, second compound 10 µM",< 9.49 nM
same,"viability, T/C",[6],89.1%
same,"viability, T/C",[7],92%
same,"viability, T/C",[8],54.7%
same,"viability, T/C",[9],10%
same,"viability, T/C",[10],6.37%
same,"viability, T/C",[11],5.76%
same,"viability, T/C",[12],60.1%
same,"viability, T/C",[13],60.2%
same,"viability, T/C",[14],48.5%
same,"viability, T/C",[15],8.51%
same,"viability, T/C",[16],6.34%
same,"viability, T/C",[17],5.65%
same,"viability, T/C",[18],33.1%
same,"viability, T/C",[19],38.5%
same,"viability, T/C",[20],31.7%
same,"viability, T/C",[21],7.62%
same,"viability, T/C",[22],5.87%
same,"viability, T/C",[23],5.13%
same,"viability, T/C","second compound 3.16 µM, first compound 0.00949 µM",23.1%
same,"viability, T/C","second compound 3.16 µM, first compound 0.03 µM",25.1%
same,"viability, T/C","second compound 3.16 µM, first compound 0.0949 µM",24%
same,"viability, T/C","second compound 3.16 µM, first compound 0.3 µM",8.35%
same,"viability, T/C","second compound 3.16 µM, first compound 0.949 µM",5.85%
same,"viability, T/C","second compound 3.16 µM, first compound 3 µM",5.4%
same,"viability, T/C","second compound 10 µM, first compound 0.00949 µM",18.1%
same,"viability, T/C","second compound 10 µM, first compound 0.03 µM",21.6%
same,"viability, T/C","second compound 10 µM, first compound 0.0949 µM",15.7%
same,"viability, T/C","second compound 10 µM, first compound 0.3 µM",6.3%
same,"viability, T/C","second compound 10 µM, first compound 0.949 µM",5.1%
same,"viability, T/C","second compound 10 µM, first compound 3 µM",4.5%
Cn1cnc2c(F)c(Nc3ccc(Br)cc3Cl)c(C(=O)NOCCO)cc21,"viability, T/C",compound 0.00949 µM,84.1% and 81.8%
same,"viability, T/C",compound 0.03 µM,67.6% and 74.4%
same,"viability, T/C",compound 0.0949 µM,60.8% and 66.5%
same,"viability, T/C",compound 0.3 µM,55.5% and 53.2%
same,"viability, T/C",compound 0.949 µM,48% and 51.1%
same,"viability, T/C",compound 3 µM,42.9% and 37.9%
same,IC50,curve of compound,597 nM and 704 nM
Cn1cnc2c(F)c(Nc3ccc(Br)cc3Cl)c(C(=O)NOCCO)cc21 + CCN1CCN(Cc2ccc(Nc3ncc(F)c(-c4cc(F)c5nc(C)n(C(C)C)c5c4)n3)nc2)CC1,IC50,[1],256 nM
same,IC50,[2],213 nM
same,IC50,[3],145 nM
same,IC50,[4],184 nM
same,IC50,[5],82.4 nM
same,"viability, T/C","second compound 0.01 µM, first compound 0.00949 µM",80.8%
same,"viability, T/C","second compound 0.01 µM, first compound 0.03 µM",74.8%
same,"viability, T/C","second compound 0.01 µM, first compound 0.0949 µM",56.1%
same,"viability, T/C","second compound 0.01 µM, first compound 0.3 µM",50.7%
same,"viability, T/C","second compound 0.01 µM, first compound 0.949 µM",42.8%
same,"viability, T/C","second compound 0.01 µM, first compound 3 µM",38.6%
same,"viability, T/C","second compound 0.0316 µM, first compound 0.00949 µM",71%
same,"viability, T/C","second compound 0.0316 µM, first compound 0.03 µM",64.5%
same,"viability, T/C","second compound 0.0316 µM, first compound 0.0949 µM",53.5%
same,"viability, T/C","second compound 0.0316 µM, first compound 0.3 µM",46.7%
same,"viability, T/C","second compound 0.0316 µM, first compound 0.949 µM",44.5%
same,"viability, T/C","second compound 0.0316 µM, first compound 3 µM",34.4%
same,"viability, T/C",[6],67.4%
same,"viability, T/C",[7],57.6%
same,"viability, T/C",[8],53.8%
same,"viability, T/C",[9],46.3%
same,"viability, T/C",[10],39.9%
same,"viability, T/C",[11],37.1%
same,"viability, T/C",[12],61.5%
same,"viability, T/C",[13],56.3%
same,"viability, T/C",[14],52.8%
same,"viability, T/C",[15],45.9%
same,"viability, T/C",[16],47.4%
same,"viability, T/C",[17],39.2%
same,"viability, T/C",[18],58.1%
same,"viability, T/C",[19],54.1%
same,"viability, T/C",[20],48.8%
same,"viability, T/C",[21],44.4%
same,"viability, T/C",[22],42.1%
same,"viability, T/C",[23],35%

# Source: PubChem BioAssay AID2060335 (Molecular Pharmacology Branch, DTP, NCI, 2025)
